Details: Liquid, Ebulliometric method (Recirculating still)

CCC(C)=O [butanone]
Details	vapor or sublimation pressure [kPa]
350.25 K	94

CCCCOC(C)=O [butyl ethanoate]
Details	vapor or sublimation pressure [kPa]
361.85 K	29.92
364.47 K	32.95
370.9 K	41.42
373.32 K	45.02
380.1 K	56.43
381.99 K	60
382.01 K	60
382.08 K	60.15
388.06 K	72.71
391.2 K	80.09
394.58 K	88.69
398.35 K	99.03
399.09 K	101.3

CCCC(=O)OCC [ethyl butanoate]
Details	vapor or sublimation pressure [kPa]
361.56 K	35.41
365.24 K	40.41
371.33 K	50
373.83 K	54.4
376.28 K	58.98
377.21 K	60
377.23 K	60
379.65 K	65.75
384.82 K	77.2
387.65 K	84.14
390.23 K	90.84
393.63 K	100.4
393.78 K	101.3

CCCCCCC [heptane]
Details	vapor or sublimation pressure [kPa]
368.85 K	94

CCCCC(=O)OC [methyl pentanoate]
Details	vapor or sublimation pressure [kPa]
361.82 K	29.41
366.7 K	35.06
370.86 K	40.47
374.53 K	45.81
378.84 K	52.83
382.55 K	59.35
383.29 K	60
387.18 K	69.02
391.14 K	77.71
395.42 K	88.17
398.03 K	95.08
400.07 K	100.4
400.48 K	101.3

CCCCCCCC [octane]
Details	vapor or sublimation pressure [kPa]
380.76 K	60
380.78 K	60
380.82 K	60
380.84 K	60
380.85 K	60
380.87 K	60
380.94 K	60

CCCCCOC=O [pentyl methanoate]
Details	vapor or sublimation pressure [kPa]
370.04 K	33.67
374.41 K	39.15
377.87 K	44.06
381.35 K	49.42
385.08 K	55.79
387.4 K	60
387.46 K	60
387.67 K	60.5
391.65 K	68.46
394.01 K	73.5
396.89 K	80.16
399.55 K	86.56
402.19 K	93.45
405.12 K	101.3

CCCOC(=O)CC [propyl propanoate]
Details	vapor or sublimation pressure [kPa]
361.75 K	33.58
367.3 K	40.92
371.88 K	47.9
373.82 K	51.21
378.75 K	60
379.07 K	60.83
383.56 K	70.32
386.81 K	77.9
390.13 K	86.38
392.74 K	93.37
395.51 K	101.3
